Source: publication PMC5893132, “Selective inhibition of histamine-evoked Ca^2+ signals by compartmentalized cAMP in human bronchial airway smooth muscle cells” (Cell Calcium, 2018)
Structures can show the parent of a compound that is named as a salt. No end group written: not given here. *: point of attachment. Myristoyl = CCCCCCCCCCCCCC(=O)*

How the values were obtained:
Format in all cases: cell-based, human
[1] = system: hBASMCs; assay: Increase in [Ca2+]i evoked directly by stimuli in fluo-4-loaded hBASMCs; settings: for increase in [Ca2+]i evoked by the substance itself: hBASMCs from donors 1-3, PGE2 and sulprostone in Ca2+-free HBS; for effect of removal of extracellular Ca2+ on the peak increase in [Ca2+]i evoked by the stimulus: HBS vs Ca2+-free HBS (2.5 mM BAPTA added 37 s before the stimulus)
Method: (§1) Two methods were used to measure [Ca^2+]i in populations of hBASMCs. For measurements using a FlexStation III plate-reader (Molecular Devices, Sunnyvale, CA, USA), hBASMCs were seeded into 96-well plates (10^4 cells per well). After about 4 days, when the cells were confluent, the medium was replaced with SMGM-2 without serum or growth factor supplements, and the cells were used after a further 24 h. This period in serum-free medium increased by about 2-fold the amplitude of the increases in [Ca^2+]i evoked by histamine (results not shown). Cells were washed with HEPES-buffered saline (HBS: 135 mM NaCl, 5.9 mM KCl, 1.2 mM MgCl2, 1.5 mM CaCl2, 11.6 mM HEPES, 11.5 mM D-glucose, pH 7.3), and loaded with fluo-4 by incubation with fluo-4-AM (2 μM) in HBS (100 μL per well) containing pluronic F127 (0.02%, v/v) and probenecid (2.5 mM). After 1 h at 20 °C, the medium was replaced with HBS (100 μL per well) containing probenecid (2.5 mM). After a further incubation at 20 °C for 1 h, the medium was replaced with HBS (60–80 μL per well) or nominally Ca^2+-free HBS, and the cells were used immediately for experiments at 20 °C. In some experiments, BAPTA (2.5 mM) was added to HBS during the recording; this reduced the free [Ca^2+] of the HBS to ∼120 nM without affecting the pH. Drug additions (20 μL at 4 or 5 times the final concentration) were added automatically. Fluorescence from fluo-4 (excitation 485 nm, emission 525 nm) was recorded at 1.44-s intervals using Softmax Pro 5.4 (Molecular Devices). Fluorescence was calibrated to [Ca^2+]i from: [Ca^2+]i=KDCa×(F−Fmin/Fmax−F) where, KDCa is the equilibrium dissociation constant of fluo-4 for Ca^2+ (345 nM), F is the recorded fluorescence, and Fmin and Fmax are the fluorescence values recorded after addition of triton-X-100 (0.1%, v/v) with either BAPTA (10 mM, Fmin) or CaCl2 (10 mM, Fmax). Although treatment with triton-X-100 releases fluo-4 from cells into the medium, the fluo-4 fluorescence is captured with the same efficiency whether it is trapped within cells or dispersed within the small volume of the wells (unpublished observations). Fmax was determined for each well at the end of an experiment, and the average value was used for each column of 8 wells. Fmin was determined from parallel wells on each plate.
(§2) For measurements of [Ca^2+]i using an FDSS 7000 FLIPR (Hamamatsu), hBASMCs were seeded into 384-well plates (8000 cells per well) in 20 μL of SMGM-2 containing 5% serum. After 24 h, the medium was replaced with 15 μL of serum-free SMGM-2, and after a further 6 h the cells were loaded with Ca^2+ indicator by addition of FLIPR calcium 4 assay kit (Molecular Devices) supplemented with probenecid (2.5 mM). The exact composition of this ‘no-wash’ indicator kit is not disclosed by the manufacturer, but it contains fluo-4-AM and components that reduce background fluorescence. The manufacture’s stock solution was diluted 10-fold into HBSS containing BSA (0.1%, w/v) and HEPES (20 mM); 5 μL of this solution was then added to each well (containing 15 μL of serum-free SMGM-2). After 2 h at 37 °C in humidified air containing 5% CO2, the plate was used for experiments at 20 °C. Most additions (5 μL) were prepared in HBSS supplemented with HEPES (20 mM) and BSA (0.1%, w/v). For more prolonged incubations, drugs were diluted in the initial loading medium (to avoid changes in dye-loading during the ‘no wash’ protocol). Fluorescence signals (excitation at 480 nm, emission at 540 nm) were calibrated to [Ca^2+]i after measurement of Fmin and Fmax uniquely for each well, using a KDCa = 345 nM.
(§3) All concentration-effect relationships were determined by addition of different drug concentrations to individual wells in the same multi-well plate, rather than by sequential additions to the same well. […]

[2] = system: histamine-evoked Ca^2+ signals in hBASMCs; assay: Histamine-evoked Ca2+ signals in populations of fluo-4-loaded hBASMCs; settings: for effect on the inhibition of histamine-evoked Ca2+ signals by a maximally effective concentration of isoproterenol / effect on the sensitivity to isoproterenol of histamine-evoked Ca2+ signals: inhibitor pre-treatment 30 min, then isoproterenol 1 min; for effect on histamine-evoked Ca2+ signals: pre-treatment: 8-Br-cGMP, IBMX 20 min, forskolin 10 μM, NKH477 10 μM, butaprost 10 μM, TCS2510 1 μM 5 min
Method: as §1, §2, §3

[3] = system: intracellular cAMP in hBASMCs; assay: Intracellular cAMP in hBASMCs by [3H]-adenine labeling; settings: 5 min in HBS, TCS2510 1 μM; for effect on intracellular cAMP: PGE2 10 μM, butaprost 10 μM, [3H]-adenine labeling
Method: hBASMCs in 24-well plates (50,000 cells per well) were grown to confluence. The medium was then replaced with serum-free SMGM-2, and after 24 h this was supplemented with [^3H]-adenine (1 μCi per well, 18.4 Ci·mmol^−1). After 2 h at 37 °C in humidified air with 5% CO2, the medium was removed, and the cells were washed twice with HBS. The cells were stimulated at 20 °C in HBS. Incubations were terminated by removal of the medium, addition of ice-cold trichloroacetic acid (5%, 1 mL) and rapid freezing. This protocol ensured that only intracellular [^3H]-cAMP was detected. [^3H]-adenine nucleotides were separated by column chromatography, and the activity was determined by liquid scintillation counting using Ultra-gold scintillant. Results are presented as [^3H]-cAMP activity as a percentage of the sum of the activities of the fractions containing [^3H]-cAMP, [^3H]-ATP, [^3H]-ADP and [^3H]-AMP; henceforth, reported as [^3H]-cAMP (%).

## 18:1 lysophosphatidic acid [LPA]
[1]
  increase in [Ca2+]i evoked by the substance itself: Cells from all three donors responded

## O=C(Nc1ncnc2c1ncn2[C@@H]1O[C@@H]2COP(=O)(O)OC2C1O)c1ccccc1 (stereo in doubt) [6-Bnz-cAMP]
[2]; 500 μM, 20 min pre-treatment, histamine 10 μM, n = 5
  amplitude of the Ca2+ signals evoked by histamine, % of paired controls: 54 ± 4%

## Nc1ncnc2c1nc(Br)n2[C@@H]1O[C@@H]2COP(=O)(O)O[C@H]2[C@H]1O [8-Br-cAMP]
[2]; pre-treatment 20 min, histamine 10 μM, n = 6
  pIC50 for inhibition of histamine-evoked Ca2+ signals: 3.32 ± 0.16

## CO[C@@H]1[C@@H]2OP(=O)(O)OC[C@H]2O[C@H]1n1c(Sc2ccc(Cl)cc2)nc2c(N)ncnc21 [8-pCPT-2′-O-Me-cAMP]
[2]; 300 μM pre-treatment, histamine 10 μM
  amplitude of the Ca2+ signals evoked by histamine, % of paired controls: 103 ± 8%

## Nc1ncnc2c1ncn2[C@@H]1O[C@H](COP(=O)(O)OP(=O)(O)OP(=O)(O)O)[C@@H](O)[C@H]1O [ATP]
[1]
  increase in [Ca2+]i evoked by the substance itself: cells from only one donor responded robustly to ATP (donor 3)

## Cc1ccc(S(=O)(=O)c2c(C)cc(C)cc2C)cc1 [ESI-05, 4-methylphenyl-2,4,6-trimethylsulphone]
[2]; ESI-05 25 μM, 30 min in HBS, histamine 10 μM added 1 min after isoproterenol, n = 9
  effect on the concentration-dependent inhibition of histamine-evoked Ca2+ signals by isoproterenol: had no effect

## Cl.Cl.O=S(=O)(NCCNCC=Cc1ccc(Br)cc1)c1cccc2cnccc12 [H89, N-[2-[[3-(4-bromophenyl)-2-propenyl]amino]ethyl]-5-isoquinolinesulfonamide dihydrochloride]
[2]; histamine 10 μM, n = 9
  effect on the inhibition of histamine-evoked Ca2+ signals by a maximally effective concentration of isoproterenol: had no significant effect
  effect on the sensitivity to isoproterenol of histamine-evoked Ca2+ signals: significantly reduced the sensitivity to isoproterenol

## CCCCCCOC(=O)[C@]1(O)C[C@@H]2O[C@@]1(C)n1c3ccccc3c3c4c(c5c6ccccc6n2c5c31)C(=O)NC4 [KT5720, (9R,10S,12S)-2,3,9,10,11,12-hexahydro-10-hydroxy-9-methyl-1-oxo-9,12-epoxy-1H-diindolo[1,2,3-fg:3′,2′,1′-kl]pyrrolo[3,4-i][1,6]benzodiazocine-10-carboxylic acid, hexyl ester]
[2]; histamine 10 μM, n = 9
  effect on the inhibition of histamine-evoked Ca2+ signals by a maximally effective concentration of isoproterenol: had no significant effect
  effect on the sensitivity to isoproterenol of histamine-evoked Ca2+ signals: Neither KT5720 nor PKI-myr significantly affected

## C=C[C@@]1(C)CC(=O)[C@]2(O)[C@@]3(C)[C@@H](O)CCC(C)(C)[C@@H]3C(OC(=O)CCN(C)C)[C@H](OC(C)=O)[C@@]2(C)O1.Cl (stereo partly drawn) [NKH477, N,N-dimethyl-(3R,4aR,5S,6aS,10S,10aR,10bS)-5-(acetyloxy)-3-ethenyldodecahydro-10,10b-dihydroxy-3,4a,7,7,10a-pentamethyl-1-oxo-1H-naphtho[2,1-b]pyran-6-yl ester β-alanine hydrochloride]
[2]
  effect on histamine-evoked Ca2+ signals: mimicked the effect of isoproterenol

## CCCCC[C@H](O)/C=C/[C@H]1[C@H](O)CC(=O)[C@@H]1C/C=C\CCCC(=O)O [PGE2, prostaglandin E2]
[1]
  increase in [Ca2+]i evoked by the substance itself: directly evoked a significant increase in [Ca^2+]i
[3]
  effect on intracellular cAMP: stimulated cAMP accumulation

## Nc1ncnc2c1nc(Sc1ccc(Cl)cc1)n2[C@@H]1O[C@@H]2COP(O)(=S)O[C@H]2[C@H]1O (stereo partly shown) [Rp-8-CPT-cAMPS, Rp-8-CPT-cAMPs]
[2]; histamine 10 μM, n = 9
  effect on the inhibition of histamine-evoked Ca2+ signals by a maximally effective concentration of isoproterenol: had no significant effect
  effect on the sensitivity to isoproterenol of histamine-evoked Ca2+ signals: significant decrease in the sensitivity to isoproterenol, but the effect was small

## O=C1CC[C@H](C=C[C@@H](O)Cc2ccccc2)N1CCCCCCc1nn[nH]n1 [TCS2510, (5R)-5-[(3S)-3-hydroxy-4-phenyl-1-buten-1-yl]-1-[6-(2H-tetrazol-5-yl)hexyl]-2-pyrrolidinone]
[2]
  effect on histamine-evoked Ca2+ signals: inhibited the Ca^2+ signals evoked by histamine
[1]
  increase in [Ca2+]i evoked by the substance itself: Neither butaprost nor TCS2510 evoked an increase in [Ca^2+]i
[3]
  effect on intracellular cAMP: stimulated formation of cAMP
[3]; equally effective in inhibiting histamine-evoked Ca2+ signals
  production of cAMP at maximal concentration compared with forskolin, NKH477, isoproterenol or butaprost: far less

## Cn1c(=O)c2c(ncn2C)n(C)c1=O [caffeine]
[1]
  increase in [Ca2+]i evoked by the substance itself: A lack of response

## C[N+](C)(C)CCOC(N)=O [carbachol, carbamylcholine chloride]
[1]
  effect of removal of extracellular Ca2+ on the peak increase in [Ca2+]i evoked by the stimulus: unaffected
  increase in [Ca2+]i evoked by the substance itself: cells from only one other donor responded robustly to carbachol (donor 2)

## NCCc1c[nH]cn1 [histamine, Histamine dihydrochloride]
[1]
  effect of removal of extracellular Ca2+ on the peak increase in [Ca2+]i evoked by the stimulus: unaffected
  increase in [Ca2+]i evoked by the substance itself: Cells from all three donors responded
[1]; Homo sapiens, histamine alone, HBSS, n = 7, read-out: sensitivity to histamine (pEC50) (converted)
  EC50: 1050 nM
[1]; histamine alone, HBSS, n = 7
  maximal amplitude of the peak increase in [Ca2+]i evoked by histamine: 242 ± 15 nM

## CS(=O)(=O)NC(=O)CCC/C=C\C[C@H]1C(=O)C[C@@H](O)[C@@H]1/C=C/[C@@H](O)COc1ccccc1 [sulprostone, Sulprostone]
[1]
  increase in [Ca2+]i evoked by the substance itself: also evoked an increase in [Ca^2+]i

## bradykinin acetate (RPPGFSPFR; also: acetate salt; UniProt P01042 381-389, looked up)
[1]
  effect of removal of extracellular Ca2+ on the peak increase in [Ca2+]i evoked by the stimulus: unaffected
  increase in [Ca2+]i evoked by the substance itself: Cells from all three donors responded

## myristoylated protein kinase inhibitor 14–22 amide (Myristoyl-SGRTGRRNA-NH2; SMILES CCCCCCCCCCCCCC(=O)N[C@@H](CO)C(=O)NCC(=O)N[C@@H](CCCNC(=N)N)C(=O)N[C@H](C(=O)NCC(=O)N[C@@H](CCCNC(=N)N)C(=O)N[C@@H](CCCNC(=N)N)C(=O)N[C@@H](CC(N)=O)C(=O)N[C@@H](C)C(N)=O)[C@@H](C)O; UniProt P61925 14-22, looked up, fragment) [PKI-myr]
[2]; histamine 10 μM, n = 9
  effect on the inhibition of histamine-evoked Ca2+ signals by a maximally effective concentration of isoproterenol: had no significant effect
  effect on the sensitivity to isoproterenol of histamine-evoked Ca2+ signals: Neither KT5720 nor PKI-myr significantly affected
